Assay results from patent US20250332180A1, “CANNABINOIDS AND IL-15 ACTIVATE NK CELLS” (The Regents of the University of California, priority 2022, published 2025).

Test system: PL-12 tumor cells
Conditions: 48 h, 25-100 μM

CS(=O)(=O)O.Cc1c(C(=O)c2cccc3ccccc23)c2cccc3c2n1[C@H](CN1CCOCC1)CO3 [WIN 55,212-2, (R)-(+)-[2,3-Dihydro-5-methyl-3-(4-morpholinylmethyl)pyrrolo[1,2,3-de]-1,4-benzoxazin-6-yl]-1-naphthalenylmethanone mesylate]
cell surface expression of CD44: Decreased cell surface expression | cell surface expression of CD54: decreased the expression | cell surface expression of MHC class I: increased on PL-12 tumor cells | cell surface expression of PD-L1: increased in PL-12
